From paper PMC11285948, “The effects of CYP2B6 inactivators on the metabolism of ciprofol” (PLOS ONE, 2024)
Where “and” joins values, the source holds several entries; their conditions need not be identical. Identical values can stand only once.

Experiments:
[1] = system: typical substrates of CYP1A2, CYP2B6, and CYP2C19; conditions: IVIVE and PBPK simulations; ref Hou et al. 9; cited from earlier work
[2] = Stability of ciprofol QC samples in rat plasma; format: physicochemical; parameters: calculated concentration, mean: unit: ng/mL; conditions: for ciprofol found after storage, Autosampler / ciprofol found after storage, Room Temperature / ciprofol found after storage, Freeze–Thaw / ciprofol found after storage, Long-Term Storage / Stability: mean calculated concentration / Stability: calculated concentration: rat plasma; for ciprofol found after storage, Autosampler / ciprofol found after storage, Room Temperature / ciprofol found after storage, Freeze–Thaw / ciprofol found after storage, Long-Term Storage: n = 5; for Stability: calculated concentration: single replicates
Protocol: 5 μL of IS solution (2.5 μg·mL^-1 D6-ciprofol) was added to 100 μL of plasma and mixed. Then, 300 μL of acetonitrile was added. The mixture was vortexed for 2 min and centrifuged for 10 min, and the supernatant was transferred to an autosampler vial for HPLC-MS/MS detection.
To investigate the stability of ciprofol under a variety of conditions, three groups of liver microsome QC sample solutions were prepared, and one group was immediately processed and analysed as described in Section 2.4.2. Another group was stored at room temperature for 8 hours before treatment and assessment. The other group was treated and placed in the autosampler (4°C) for 24 h and subsequently analysed. In addition, simulated plasma QC samples were prepared in five groups: one group was processed and measured immediately as described in Section 2.4.3, and another group was placed in the autosampler for 24 h after treatment. The other three groups were placed at room temperature for 8 h, stored at -40°C for 30 d, frozen and thawed three times, respectively, and then processed and detected as described in Section 2.4.3. All the above samples were tested in parallel in five batches.

[3] = Autosampler for 24 h, QC level H
[4] = Autosampler for 24 h, QC level L
[5] = Autosampler for 24 h, QC level M
[6] = Feeeze - Thaw for three times, QC level H
[7] = Feeeze - Thaw for three times, QC level L
[8] = Feeeze - Thaw for three times, QC level M
[9] = Room - Temperature for 8 h, QC level H
[10] = Room - Temperature for 8 h, QC level L
[11] = Room - Temperature for 8 h, QC level M

CC(C)c1cccc([C@H](C)C2CC2)c1O [ciprofol]
predicted drug-drug interactions with typical substrates of CYP1A2, CYP2B6, and CYP2C19 [1]: did not cause drug‒drug interactions
calculated concentration, mean ([2]; QC sample level H, mean of H1-H5): 1597.51
ciprofol found after storage, Autosampler ([2]; QC 30 ng·mL^-1, autosampler for 24 h after treatment): 32.80 ± 1.93 ng/mL
ciprofol found after storage, Room Temperature ([2]; QC 30 ng·mL^-1, room temperature for 8 h): 30.50 ± 2.27 ng/mL
ciprofol found after storage, Freeze–Thaw ([2]; QC 30 ng·mL^-1, three freeze–thaw cycles): 33.49 ± 2.03 ng/mL
ciprofol found after storage, Long-Term Storage ([2]; QC 30 ng·mL^-1, −40°C for 30 days): 32.70 ± 2.85 ng/mL
ciprofol found after storage, Autosampler ([2]; QC 250 ng·mL^-1, autosampler for 24 h after treatment): 250.78 ± 12.31 ng/mL
ciprofol found after storage, Room Temperature ([2]; QC 250 ng·mL^-1, room temperature for 8 h): 227.31 ± 5.60 ng/mL
ciprofol found after storage, Freeze–Thaw ([2]; QC 250 ng·mL^-1, three freeze–thaw cycles): 245.21 ± 3.43 ng/mL
ciprofol found after storage, Long-Term Storage ([2]; QC 250 ng·mL^-1, −40°C for 30 days): 242.73 ± 9.08 ng/mL
ciprofol found after storage, Autosampler ([2]; QC 1600 ng·mL^-1, autosampler for 24 h after treatment): 1576.27 ± 41.67 ng/mL
ciprofol found after storage, Room Temperature ([2]; QC 1600 ng·mL^-1, room temperature for 8 h): 1464.24 ± 98.79 ng/mL
ciprofol found after storage, Freeze–Thaw ([2]; QC 1600 ng·mL^-1, three freeze–thaw cycles): 1604.92 ± 96.88 ng/mL
ciprofol found after storage, Long-Term Storage ([2]; QC 1600 ng·mL^-1, −40°C for 30 days): 1597.51 ± 83.93 ng/mL
Stability: mean calculated concentration ([2]; -40℃ for 30 d, QC level L): 31.38 ng/mL
Stability: calculated concentration ([2]; -40℃ for 30 d, QC level L): 34.12 ng/mL and 32.66 ng/mL and 29.27 ng/mL and 33.13 ng/mL and 27.74 ng/mL
Stability: mean calculated concentration ([2]; -40℃ for 30 d, QC level M): 242.73 ng/mL
Stability: calculated concentration ([2]; -40℃ for 30 d, QC level M): 234.27 ng/mL and 256.93 ng/mL and 236.05 ng/mL and 240.78 ng/mL
Stability: mean calculated concentration [2, 3]: 1576.27 ng/mL
Stability: calculated concentration [2, 3]: 1522.23 ng/mL and 1628.44 ng/mL and 1549.96 ng/mL and 1580.01 ng/mL and 1600.71 ng/mL
Stability: mean calculated concentration [2, 4]: 31.48 ng/mL
Stability: calculated concentration [2, 4]: 32.65 ng/mL and 31.94 ng/mL and 29.92 ng/mL and 33.65 ng/mL and 29.23 ng/mL
Stability: mean calculated concentration [2, 5]: 250.78 ng/mL
Stability: calculated concentration [2, 5]: 249.99 ng/mL and 245.49 ng/mL and 259.61 ng/mL and 233.66 ng/mL and 265.15 ng/mL
Stability: mean calculated concentration [2, 6]: 1604.92 ng/mL
Stability: calculated concentration [2, 6]: 1500.04 ng/mL and 1659.28 ng/mL and 1498.65 ng/mL and 1682.66 ng/mL and 1683.96 ng/mL
Stability: mean calculated concentration [2, 7]: 32.14 ng/mL
Stability: calculated concentration [2, 7]: 33.17 ng/mL and 29.49 ng/mL and 30.69 ng/mL and 33.26 ng/mL and 34.09 ng/mL
Stability: mean calculated concentration [2, 8]: 245.21 ng/mL
Stability: calculated concentration [2, 8]: 248.65 ng/mL and 241.72 ng/mL and 249.13 ng/mL and 243.02 ng/mL and 243.50 ng/mL
Stability: mean calculated concentration [2, 9]: 1464.24 ng/mL
Stability: calculated concentration [2, 9]: 1500.17 ng/mL and 1462.05 ng/mL and 1317.85 ng/mL and 1591.16 ng/mL and 1449.95 ng/mL
Stability: mean calculated concentration [2, 10]: 29.27 ng/mL
Stability: calculated concentration [2, 10]: 29.52 ng/mL and 32.22 ng/mL and 27.05 ng/mL and 30.35 ng/mL and 27.24 ng/mL
Stability: mean calculated concentration [2, 11]: 227.31 ng/mL
Stability: calculated concentration [2, 11]: 220.38 ng/mL and 226.72 ng/mL and 228.84 ng/mL and 235.64 ng/mL and 224.99 ng/mL
